{
  "source": "patent US20250367160A1",
  "about": "“USE OF GUAIJAVERIN IN PREPARATION OF EYE PROTECTION PRODUCT” (Innovation Center of Yangtze River Delta, ZJU, priority 2024, published 2025)",
  "key": {"[1]": {"tested_on": "human primary retinal Müller cells", "assay": "Optical stress (strong white light) model of human primary retinal Müller cells, AlamarBlue cell viability", "assay_type": "cell-based", "details": "pre-incubation 24 h, 32k Lux strong light 4 h", "protocol": "The human primary Müller cells in a logarithmic growth phase were inoculated at a density of 5,000 cells/well in a 96-well plate and cultured in a 37° C., 5% CO2 incubator for 24 h. The medium was removed by aspirating, and 6 replicate wells were set up for guaijaverin groups. 100 μL of the guaijaverin solution dissolved in DMSO solvent in advance was further diluted in DMEM and added into each well, at final concentrations of 10 μM and 30 μM, respectively. The control group was added with 100 μL of DMEM solution. A laboratory-made strong light irradiation system was used to model optical stress on human retinal primary Müller cells cultured in vitro. A strong light irradiation group was irradiated with 32k Lux of strong light for 4 h, while a weak light irradiation group was irradiated with 5k Lux of weak light for 4 h. Then, the cell viability was detected using the AlamarBlue kit.\nAfter the cells were stressed by light, the AlamarBlue kit was used to detect cell viability. The cell culture supernatant was discarded, and the cells were washed twice with 100 μL of PBS. 100 μL of AlamarBlue reagent diluted 1:10 with DMEM solution was added, and the cells were incubated in a 37° C., 5% CO2 incubator for 4 h. The fluorescence of each well was read using a microplate reader at an excitation wavelength of 544 nm and an emission wavelength of 590 nm. 2."}, "[2]": {"tested_on": "Wild-type AB zebrafish", "assay": "Determination of maximum test concentration (MTC) in zebrafish blue light eye damage model", "assay_type": "in vivo", "details": "28° C.; for Death count / Development status (phenotype) / Mortality: aqueous, n = 30", "protocol": "Wild-type AB zebrafish at 1 day post-fertilization (1 dpf) were randomly selected and irradiated with blue light after membrane rupture to establish the zebrafish blue light eye damage model. Model zebrafish with desirable development status were selected at 3 dpf and randomly distributed in 6-well plates, with 30 zebrafish in each well (experimental group) were treated. Different concentrations of guaijaverin (concentrations shown in Table 1) were administered aqueously, and a normal control group and a model group were set up, where a volume of each well was 3 mL. After treatment at 28° C. for 1 d, the MTC of guaijaverin on model zebrafish was determined."}, "[3]": {"tested_on": "ocular apoptotic cells of the zebrafish", "assay": "Anti-blue light eye protection efficacy, AO staining of ocular apoptotic cells in zebrafish blue light eye damage model", "assay_type": "in vivo", "details": "for Fluorescence intensity of ocular apoptotic cells (pixel, mean ± SE): aqueous, 28° C., 1 d, n = 10, model group 45833 ± 4825, normal control 12203 ± 1124", "protocol": "Wild-type AB zebrafish at 1 dpf were randomly selected and irradiated with blue light after membrane rupture to establish the zebrafish blue light eye damage model. Model zebrafish with desirable development status were selected at 3 dpf and randomly distributed in 6-well plates, with 30 zebrafish in each well (experimental group) were treated. Different concentrations of guaijaverin (see Table 2 for concentrations) were administered aqueously, and lutein at a concentration of 62.5 μg/mL were used as a positive control, while a normal control group and a model group were also set up, with a volume of 3 mL per well. After 1 d of treatment at 28° C., the zebrafish in each experimental group were stained with AO in the dark for 30 min and washed 3 times with standard dilution water. 10 zebrafish were randomly selected from each experimental group and photographed under a fluorescence microscope. The data were analyzed and collected using Image J software. The fluorescence intensity of ocular apoptotic cells of the zebrafish was statistically analyzed. The anti-blue light eye protection efficacy of guaijaverin was evaluated based on the statistical analysis results of the above indicators. The statistical result was expressed as mean±SE."}},
  "data": [
    {"smiles": "O=c1c(O[C@@H]2OC[C@H](O)[C@H](O)[C@H]2O)c(-c2ccc(O)c(O)c2)oc2cc(O)cc(O)c12", "note": "[Guaijaverin, guaijaverin]", "values": [
      {"measurement": "viability of Müller cells after strong light irradiation", "setting": "[1]; 10 μM, FIG. 1", "value": "significantly restored"},
      {"measurement": "viability of Müller cells after strong light irradiation", "setting": "[1]; 30 μM, FIG. 2", "value": "restored to the level under weak light irradiation conditions"},
      {"measurement": "Death count", "setting": "[2]; 125 μg/mL, 1 d", "value": 0, "unit": "per fish"},
      {"measurement": "Development status (phenotype)", "setting": "[2]; 125 μg/mL, 1 d", "value": "Status similar to that of model"},
      {"measurement": "Mortality", "setting": "[2]; 125 μg/mL, 1 d", "value": 0, "unit": "%"},
      {"measurement": "Death count", "setting": "[2]; 150 μg/mL, 1 d", "value": 0, "unit": "per fish"},
      {"measurement": "Development status (phenotype)", "setting": "[2]; 150 μg/mL, 1 d", "value": "Status similar to that of model"},
      {"measurement": "Mortality", "setting": "[2]; 150 μg/mL, 1 d", "value": 0, "unit": "%"},
      {"measurement": "Dissolution", "setting": "[2]; 200 μg/mL in fish water", "value": "Precipitated"},
      {"measurement": "Death count", "setting": "[2]; 200 μg/mL, 1 d", "value": 0, "unit": "per fish"},
      {"measurement": "Development status (phenotype)", "setting": "[2]; 200 μg/mL, 1 d", "value": "Status similar to that of model"},
      {"measurement": "Mortality", "setting": "[2]; 200 μg/mL, 1 d", "value": 0, "unit": "%"},
      {"measurement": "Dissolution", "setting": "[2]; 250 μg/mL in fish water", "value": "Precipitated"},
      {"measurement": "Death count", "setting": "[2]; 250 μg/mL, 1 d", "value": 0, "unit": "per fish"},
      {"measurement": "Development status (phenotype)", "setting": "[2]; 250 μg/mL, 1 d", "value": "Status similar to that of model"},
      {"measurement": "Mortality", "setting": "[2]; 250 μg/mL, 1 d", "value": 0, "unit": "%"},
      {"measurement": "Dissolution", "setting": "[2]; 500 μg/mL in fish water", "value": "Precipitated"},
      {"measurement": "Death count", "setting": "[2]; 500 μg/mL, 1 d", "value": 0, "unit": "per fish"},
      {"measurement": "Development status (phenotype)", "setting": "[2]; 500 μg/mL, 1 d", "value": "Status similar to that of model"},
      {"measurement": "Mortality", "setting": "[2]; 500 μg/mL, 1 d", "value": 0, "unit": "%"},
      {"measurement": "Dissolution", "setting": "[2]; 1000 μg/mL in fish water", "value": "Precipitated"},
      {"measurement": "Death count", "setting": "[2]; 1000 μg/mL, 1 d", "value": 0, "unit": "per fish"},
      {"measurement": "Development status (phenotype)", "setting": "[2]; 1000 μg/mL, 1 d", "value": "Status similar to that of model"},
      {"measurement": "Mortality", "setting": "[2]; 1000 μg/mL, 1 d", "value": 0, "unit": "%"},
      {"measurement": "Dissolution", "setting": "[2]; 2000 μg/mL in fish water", "value": "Precipitated"},
      {"measurement": "Death count", "setting": "[2]; 2000 μg/mL, 1 d", "value": 0, "unit": "per fish"},
      {"measurement": "Development status (phenotype)", "setting": "[2]; 2000 μg/mL, 1 d", "value": "Status similar to that of model"},
      {"measurement": "Mortality", "setting": "[2]; 2000 μg/mL, 1 d", "value": 0, "unit": "%"},
      {"measurement": "MTC (maximum test concentration)", "setting": "[2]; model zebrafish, 1 d", "value": 150, "unit": "µg/mL"},
      {"measurement": "Fluorescence intensity of ocular apoptotic cells (pixel, mean ± SE)", "setting": "[3]; 62.5 μg/mL", "value": "31471 ± 2353", "unit": "pixel"},
      {"measurement": "eye protection effect against blue optical damage compared with lutein", "setting": "[3]; 125 μg/mL vs lutein 62.5 μg/mL", "value": "same significant eye protection effect as lutein"},
      {"measurement": "Fluorescence intensity of ocular apoptotic cells (pixel, mean ± SE)", "setting": "[3]; 125 μg/mL", "value": "24765 ± 2077", "unit": "pixel"},
      {"measurement": "eye protection effect against blue optical damage compared with lutein", "setting": "[3]; 150 μg/mL vs lutein 62.5 μg/mL", "value": "more significant eye protection effect than lutein"},
      {"measurement": "Fluorescence intensity of ocular apoptotic cells (pixel, mean ± SE)", "setting": "[3]; 150 μg/mL", "value": "18149 ± 1688", "unit": "pixel"}
    ]}
  ]
}
